Laboratory results taken from PubChem BioAssay (NCI).
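Compound exposure: 48 hours, 5 concentrations, 96-well plates. Abbreviation: GI50, concentration required for 50% inhibition of growth. TGI denotes the concentration required for complete inhibition of growth.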

Tests used:
Experiment in all cases: DTP human tumour cell line panel, 48 h
HS 578T breast = test system: HS 578T breast
KM12 colon = test system: KM12 colon
HOP-92 NSCLC = test system: HOP-92 NSCLC
IGROV1 ovarian = test system: IGROV1 ovarian
HOP-62 NSCLC = test system: HOP-62 NSCLC
SK-MEL-2 melanoma = test system: SK-MEL-2 melanoma
K-562 leukemia = test system: K-562 leukemia
UACC-62 melanoma = test system: UACC-62 melanoma
RXF 393 renal = test system: RXF 393 renal
SR leukemia = test system: SR leukemia

C[n+]1c(/C=C/c2ccc(/C=N/NC(=O)c3ccc(C(=O)N/N=C/c4ccc(/C=C/c5cn6ccccc6[n+]5C)cc4)cc3)cc2)cn2ccccc21 was tested, and the TGI (HS 578T breast) was > 100 µM, the TGI (KM12 colon) was > 100 µM and the TGI (HOP-92 NSCLC) was > 100 µM. The TGI (IGROV1 ovarian) was > 100 µM and the TGI (HOP-62 NSCLC) was > 100 µM.

Cc1cn2c(/C=N/N=C(N)N)c(-c3ccsc3)nc2s1 showed a GI50 (HS 578T breast) of 13 µM, a TGI (HS 578T breast) of 37.8 µM and a GI50 (SK-MEL-2 melanoma) of 28.3 µM. The TGI (SK-MEL-2 melanoma) was > 100 µM, the GI50 (KM12 colon) was 6.6 µM and the TGI (KM12 colon) was 29.9 µM. For the same molecule, the GI50 (K-562 leukemia) was 3.82 µM, the TGI (K-562 leukemia) was > 100 µM and the GI50 (IGROV1 ovarian) was 14.9 µM. The TGI (IGROV1 ovarian) was 46.3 µM, the GI50 (UACC-62 melanoma) was 11.3 µM and the TGI (UACC-62 melanoma) was 23.4 µM. The GI50 (RXF 393 renal) was 17.3 µM and the TGI (RXF 393 renal) was 33.5 µM.

With CC(=O)NC1=C(Sc2ccc(Cl)cc2)C(=O)c2ccccc2C1=O the TGI (HS 578T breast) was 61.6 µM, the TGI (SK-MEL-2 melanoma) was 16 µM and the TGI (KM12 colon) was 16.6 µM. The TGI (HOP-92 NSCLC) was 5.67 µM, the TGI (K-562 leukemia) was 5.41 µM and the TGI (IGROV1 ovarian) was 17.1 µM. For the same molecule, the TGI (UACC-62 melanoma) was 13.3 µM and the TGI (RXF 393 renal) was 4.65 µM.

In the case of CC(C)(C)OC(=O)NCCCCCCCCCCn1c2c(c3ccccc3c1=O)C(=O)c1ccccc1-2, the GI50 (HS 578T breast) is reported as 24.6 µM, the TGI (HS 578T breast) is reported as > 100 µM and the GI50 (SK-MEL-2 melanoma) is reported as 21.1 µM. For the same molecule, the TGI (SK-MEL-2 melanoma) was 49.7 µM, the GI50 (KM12 colon) was > 100 µM and the TGI (KM12 colon) was > 100 µM. The GI50 (HOP-92 NSCLC) was 9.92 µM, the TGI (HOP-92 NSCLC) was 35.2 µM and the GI50 (K-562 leukemia) was 27.4 µM. The TGI (K-562 leukemia) was > 100 µM, the GI50 (UACC-62 melanoma) was 43.9 µM and the TGI (UACC-62 melanoma) was > 100 µM. For the same molecule, the GI50 (RXF 393 renal) was 13 µM, the TGI (RXF 393 renal) was 37.4 µM and the GI50 (HOP-62 NSCLC) was 29.1 µM. The TGI (HOP-62 NSCLC) was > 100 µM.

With CN(C)CCOc1ccc(-c2cc(-c3ccc4c(c3)CC/C4=N\O)c(-c3ccncc3)o2)cc1 the GI50 (HS 578T breast) was 4.59 µM, the TGI (HS 578T breast) was 12.4 µM and the GI50 (SK-MEL-2 melanoma) was 0.281 µM. For the same molecule, the TGI (SK-MEL-2 melanoma) was 3.54 µM, the GI50 (KM12 colon) was 3.57 µM and the TGI (KM12 colon) was 7.28 µM. It also gave a GI50 (K-562 leukemia) of 0.668 µM, a TGI (K-562 leukemia) of 3.27 µM and a GI50 (IGROV1 ovarian) of 4.7 µM. The TGI (IGROV1 ovarian) was 10.1 µM, the GI50 (UACC-62 melanoma) was 0.0906 µM and the TGI (UACC-62 melanoma) was 3.79 µM. For the same molecule, the GI50 (RXF 393 renal) was 3.07 µM, the TGI (RXF 393 renal) was 6.78 µM and the GI50 (HOP-62 NSCLC) was 3.84 µM. The TGI (HOP-62 NSCLC) was 7.92 µM.

In the case of COc1ccc(/C(=N/O)c2cc(OC)c(OC)c(OC)c2)c(OC)c1N, the GI50 (HS 578T breast) is reported as 4.74 µM, the TGI (HS 578T breast) is reported as > 100 µM and the GI50 (SK-MEL-2 melanoma) is reported as > 100 µM. The TGI (SK-MEL-2 melanoma) was > 100 µM, the GI50 (KM12 colon) was 3.27 µM and the TGI (KM12 colon) was > 100 µM. The GI50 (HOP-92 NSCLC) was > 100 µM, the TGI (HOP-92 NSCLC) was > 100 µM and the GI50 (K-562 leukemia) was 3.14 µM. The TGI (K-562 leukemia) was > 100 µM, the GI50 (IGROV1 ovarian) was 7.71 µM and the TGI (IGROV1 ovarian) was > 100 µM. The GI50 (HOP-62 NSCLC) was 6.55 µM and the TGI (HOP-62 NSCLC) was > 100 µM.

In the case of Cc1cc(O)cc(C)c1/C=C/c1cncc(C(=O)OC(C)(C)C)c1, the GI50 (HS 578T breast) is reported as 7.64 µM, the TGI (HS 578T breast) is reported as 24.7 µM and the GI50 (SK-MEL-2 melanoma) is reported as > 22.1 µM. The TGI (SK-MEL-2 melanoma) was > 25 µM, the GI50 (KM12 colon) was 15.2 µM and the TGI (KM12 colon) was > 25 µM. It also gave a GI50 (HOP-92 NSCLC) of 4.01 µM, a TGI (HOP-92 NSCLC) of 18.8 µM and a GI50 (K-562 leukemia) of 11.6 µM. The TGI (K-562 leukemia) was > 25 µM, the GI50 (IGROV1 ovarian) was 13.2 µM and the TGI (IGROV1 ovarian) was > 25 µM. For the same molecule, the GI50 (UACC-62 melanoma) was 17 µM, the TGI (UACC-62 melanoma) was > 25 µM and the GI50 (RXF 393 renal) was 9.75 µM. For the same molecule, the TGI (RXF 393 renal) was > 25 µM, the GI50 (HOP-62 NSCLC) was > 19.4 µM and the TGI (HOP-62 NSCLC) was > 25 µM.

For COC1=CC(=O)NCCN1, the TGI (SR leukemia) was > 100 µM, the TGI (SK-MEL-2 melanoma) was > 100 µM and the TGI (KM12 colon) was > 100 µM. The TGI (HOP-92 NSCLC) was > 100 µM, the TGI (K-562 leukemia) was > 100 µM and the TGI (IGROV1 ovarian) was > 100 µM. The TGI (UACC-62 melanoma) was > 100 µM, the TGI (RXF 393 renal) was > 100 µM and the TGI (HOP-62 NSCLC) was > 100 µM.

Work on CCc1ncnc2cc(OCC3CO3)c(OC)cc12 (configuration not stated) yielded a TGI (HS 578T breast) of 42 µM, a TGI (SK-MEL-2 melanoma) of 12.4 µM and a TGI (KM12 colon) of 49.3 µM. The TGI (HOP-92 NSCLC) was 26.7 µM, the TGI (K-562 leukemia) was > 80.3 µM and the TGI (IGROV1 ovarian) was 6.8 µM. It also gave a TGI (UACC-62 melanoma) of 18.4 µM, a TGI (RXF 393 renal) of 18.7 µM and a TGI (HOP-62 NSCLC) of 38.7 µM.

Molecule C#CC(=O)OCC#CCOC(=O)C#C has a TGI (HS 578T breast) of 86.5 µM, a TGI (SK-MEL-2 melanoma) of 40.1 µM and a TGI (KM12 colon) of 44 µM. The TGI (HOP-92 NSCLC) was 34.8 µM, the TGI (UACC-62 melanoma) was 56.7 µM and the TGI (RXF 393 renal) was 36.9 µM. The TGI (HOP-62 NSCLC) was 46.1 µM.

In the case of CC12CC(Sc3ccccc3N1)c1ccccc1O2 (configuration not stated), the TGI (SR leukemia) is reported as 58 µM, the TGI (SK-MEL-2 melanoma) is reported as 25.4 µM and the TGI (KM12 colon) is reported as 28.6 µM. The TGI (HOP-92 NSCLC) was 35.2 µM, the TGI (K-562 leukemia) was 40.2 µM and the TGI (IGROV1 ovarian) was 48.6 µM. It also gave a TGI (UACC-62 melanoma) of 30.7 µM, a TGI (RXF 393 renal) of 30.2 µM and a TGI (HOP-62 NSCLC) of 38.4 µM.

CC(=O)c1cccc(NC(=O)c2ccc(NC3=C(Cl)C(=O)N(Cc4ccccc4)C3=O)cc2)c1 showed a GI50 (HS 578T breast) of 22.6 µM, a TGI (HS 578T breast) of 88.7 µM and a GI50 (SK-MEL-2 melanoma) of 2.38 µM. It also gave a TGI (SK-MEL-2 melanoma) of 11.5 µM, a GI50 (KM12 colon) of 20 µM and a TGI (KM12 colon) of 43 µM. It also gave a GI50 (HOP-92 NSCLC) of 6.45 µM, a TGI (HOP-92 NSCLC) of 22.8 µM and a GI50 (K-562 leukemia) of 8.37 µM. The TGI (K-562 leukemia) was > 100 µM, the GI50 (UACC-62 melanoma) was 13.8 µM and the TGI (UACC-62 melanoma) was 29.3 µM. For the same molecule, the GI50 (RXF 393 renal) was 24 µM and the TGI (RXF 393 renal) was > 100 µM.

Work on FC(F)(F)c1[nH]ncc1-c1nc2ccc3[nH]ncc3c2c2c1CCCC2 yielded a GI50 (SR leukemia) of 0.356 µM, a TGI (SR leukemia) of 2.73 µM and a GI50 (SK-MEL-2 melanoma) of 1.64 µM. For the same molecule, the TGI (SK-MEL-2 melanoma) was 3.61 µM, the GI50 (KM12 colon) was 1.19 µM and the TGI (KM12 colon) was 11.8 µM. It also gave a GI50 (HOP-92 NSCLC) of 1.21 µM, a TGI (HOP-92 NSCLC) of 3.5 µM and a GI50 (K-562 leukemia) of 2.71 µM. It also gave a TGI (K-562 leukemia) of 60.5 µM, a GI50 (IGROV1 ovarian) of 0.942 µM and a TGI (IGROV1 ovarian) of 5 µM. The GI50 (UACC-62 melanoma) was 1.02 µM, the TGI (UACC-62 melanoma) was 2.83 µM and the GI50 (RXF 393 renal) was 1.13 µM. For the same molecule, the TGI (RXF 393 renal) was 2.35 µM, the GI50 (HOP-62 NSCLC) was 1.17 µM and the TGI (HOP-62 NSCLC) was 6.79 µM.

With Cc1ccc(S(=O)(=O)SCc2ccccc2)cc1 the TGI (SR leukemia) was 62.7 µM, the TGI (SK-MEL-2 melanoma) was > 75.6 µM and the TGI (KM12 colon) was 57.6 µM. For the same molecule, the TGI (HOP-92 NSCLC) was 60.9 µM, the TGI (K-562 leukemia) was 27.3 µM and the TGI (IGROV1 ovarian) was > 100 µM. For the same molecule, the TGI (UACC-62 melanoma) was > 67.9 µM, the TGI (RXF 393 renal) was 69.2 µM and the TGI (HOP-62 NSCLC) was > 79.3 µM.

Work on COc1cc(NC(C)CCCN)c2ncccc2c1Sc1ccc(Cl)cc1 (configuration not stated) yielded a GI50 (HS 578T breast) of 1.67 µM, a TGI (HS 578T breast) of 3.85 µM and a GI50 (SK-MEL-2 melanoma) of 1.85 µM. The TGI (SK-MEL-2 melanoma) was 3.4 µM, the GI50 (KM12 colon) was 1.77 µM and the TGI (KM12 colon) was 3.27 µM. The GI50 (HOP-92 NSCLC) was 1.37 µM, the TGI (HOP-92 NSCLC) was 3.48 µM and the GI50 (IGROV1 ovarian) was 2.31 µM. The TGI (IGROV1 ovarian) was 5.31 µM, the GI50 (UACC-62 melanoma) was 1.75 µM and the TGI (UACC-62 melanoma) was 3.33 µM. The GI50 (RXF 393 renal) was 1.7 µM, the TGI (RXF 393 renal) was 3.07 µM and the GI50 (HOP-62 NSCLC) was 1.75 µM. The TGI (HOP-62 NSCLC) was 3.29 µM.
